Laboratory results published in patent US10156564B1, “Methods of detecting biomarkers of endoplasmic reticulum (ER) stress-associated kidney diseases” (Washington University, priority 2016, dated 2018).
“Also recorded” adds a separate entry of the source.

Tests used:
mouse primary podocytes = experiment: CRELD2 expression in mouse primary podocytes treated with ER stress inducers (WB, immunofluorescence); type: cell-based; details: for CRELD2 immunofluorescence in podocytes: TM 2 μg/ml or TG 1 μM for 24 h, overlapped with BiP; for CRELD2 expression in cell lysates (WB): TM 2 μg/ml or TG 1 μM for 24 h vs DMSO vehicle
Description: FIG. 9A is an image of a Western blot showing mouse primary podocytes were treated with DMSO (control), tunicamycin (TM) (2 μg/ml) or thapsigargin (TG) (1 μM) for 24 h. Cell lysates were analyzed by WB with the indicated antibodies. TM and TG are ER stress inducers.
FIG. 9B is a series of images showing control and TM- or TG-treated mouse podocytes, as described in FIG. 9A stained for CRELD2 (red) and BiP (green). Nuclei were counterstained with Hoechst 33342 (blue). Scale bar, 40 μm.
CRELD2 is a urinary biomarker for detecting podocyte ER stress in the early stages of podocyte ER stress-induced nephrotic syndrome (NS) in mice. Initial experiments (see e.g., Example 2) determined ER stress increases CRELD2 expression and secretion in mouse primary podocytes. Mouse podocytes were treated for 24 h with tunicamycin (TM), which activates ER stress by blocking N-linked glycosylation in the ER (26), or TG, which depletes ER calcium through inhibition of ER calcium ATPase (27). […] The effects of ER stress on CRELD2 secretion were also examined.
Isolated glomeruli from Lamb2^+/−, Lamb2^−/−; Tg-C321R and Lamb2^−/−; Tg-WT mice at P27 were suspended in DMEM/Ham's F-12 (2:1) that contained 0.45 μm-filtered 3T3-L1 supernatant, 5% heat inactivated FBS, ITS (Insulin-Transferrin-Sodium Selenite) liquid media supplement, and 100 U/ml penicillin-streptomycin; plated onto collagen type I-coated petri dishes; and incubated at 37° C. in room air with 5% CO2. After 3 days, cell colonies began to sprout around the glomeruli. […] Only passages 1-2 podocytes from the indicated genotypes were used in the in vitro studies.
For immunocytochemistry, mouse primary podocytes were seeded on cover slips coated with 5 μg/ml rat collagen I that was dissolved in 0.02M acetic acid in 24 well plates for 48 hours. After 24 hours treatment with DMSO, TM or TG, the cells were fixed with 4% PFA for 20 minutes and permeabilized with 1% Triton X-100 for 5 minutes at room temperature, blocked with 1% BSA for 30 minutes at room temperature, followed by incubation with goat anti-mouse CRELD2 (R&D) and rabbit anti-mouse BiP antibodies for an additional 1 hour at room temperature. The cover slips were washed with PBS and incubated with the corresponding Alexa 594- or Alexa 488-conjugated secondary antibodies and Hoechst 33342 to stain nuclei. The cover slips were then mounted with anti-quench solution and visualized using a fluorescence microscope (Nikon).
Isolated mouse glomeruli and cultured mouse primary podocytes were lysed by RIPA buffer (Sigma) containing protease inhibitor cocktail (Roche, Indianapolis, Ind.). TM untreated- and treated-kidneys, as well as sham-operated and I/R-injured kidneys, were extracted using the same lysis buffer with the protease inhibitors and homogenized by sonication. The protein concentrations of cell, glomerular and kidney lysates were determined by Bio-Rad protein assay (Hercules, Calif.) using BSA as a standard. Denatured proteins were separated on SDS polyacrylamide gel electrophoresis (SDS-PAGE) and then transferred to PVDF membranes. Blots were blocked with 5% non-fat milk for 1 hour and then incubated overnight with primary antibodies. The membranes were washed with Tris-buffered saline/TWEEN® (polysorbate) buffer and incubated with the appropriate HRP-conjugated secondary antibodies. […] Relative intensities of protein bands were quantified using ImageJ (NIH) analysis software.

C57BL/6J mice [1] = details: cited from earlier work
C57BL/6J mice [2] = experiment: TM-induced AKI mouse model (kidney and urine CRELD2/BiP, histology); type: in vivo; details: for BiP in ER stressed-tubular cells (immunofluorescence): 1 day and 5 days post TM injection (FIG. 19); for urinary CRELD2 excretion (WB): urine within 24 hours after TM 1 mg/kg IP vs vehicle; for BiP in urine (immunodetection): within 24 hr from TM injection, no obvious histological changes of kidney injury (FIG. 20)
Description: FIG. 10A is a bar graph showing quantitative RT-PCR analysis of relative transcript levels of CRELD2 in kidneys at the indicated time points following TM injection (1 mg/kg, IP) as compared to DMSO vehicle-injected controls. Absolute levels were normalized first to those of GAPDH and then to the levels in the control kidneys (mean±SD). **P<0.01 and ***P<0.001 by ANOVA (n=3 mice per group).
FIG. 10B is a series of images showing dual IF staining for CRELD2 (green) and LTL (red) on paraformaldehyde-fixed, sucrose-cryoprotected kidney sections from mice treated with vehicle or TM (1 mg/kg) at the indicated time points. Nuclei were counterstained with Hoechst 33342 (blue). G: glomerulus. Scale bars, 40 μm.
FIG. 10C is a Western blot showing whole-kidney lysates from mice treated with or without TM (1 mg/kg) at different time points were analyzed by WB for levels of CRELD2 and β-actin.
FIG. 10E is an image of a Western blot showing the detection of urinary CRELD2 within 1 day of TM injection. Urines were collected for 24 hours after the mice were injected with vehicle or 1 mg/kg TM (IP). Crude urine samples from mice treated with vehicle (n=8) or TM (n=8) were analyzed by WB for CRELD2 excretion. The urinary CRELD2 excretion was normalized to 2 μg of urine Cr excretion.
Intraperitoneal (IP) injection of TM in mice is a well characterized AKI model caused by renal proximal tubular ER stress (29). […] In comparison, glomeruli and other organs are spared (21, 29).
TM was dissolved in DMSO at 2 mg/ml, and injected intraperitoneally at 1 mg/kg into 6-10 weeks old C57BL/6J mice. Urine was collected from metabolic cages in which the mice were immediately placed after the injection. 1 day or 5 days after the injection, sera were obtained, and kidneys were harvested. One kidney was snap frozen in dry ice and stored at −70 C until further processing for protein and RNA. The other kidney was fixed in 4% paraformaldehyde (PFA) (pH 7.4) at 4 C and then transferred to 15% and 30% sucrose/PBS for OCT-embedded cryosections.
For dual staining of CRELD2 with biotinylated LTL in mouse kidneys, […]. After dewaxing, PFA-fixed, sucrose-cryoprotected kidney sections from control or TM-treated mice were subjected to antigen retrieval by immersion in 10 mM citric acid buffer (pH 6.0) for 5 minutes at 95 C. […] Nonspecific avidin binding was blocked by an avidin/biotin blocking kit (Vector laboratories) before incubating kidney sections with 1% BSA for 30 minutes at room temperature. The slides were stained with a goat anti-mouse CRELD2 antibody (R&D) together with biotinylated LTL overnight at 4° C., followed by an Alexa 488-conjugated anti-goat secondary antibody and Alexa 594-conjugated streptavidin as well as Hoechst 33342. For CRELD2 staining in sham-operated and post-ischemic kidneys, the fluorescent signal was further amplified using a Fluorescein tyramide amplification kit (Perkin-Elmer, Waltham, Mass.) according to the manufacturer's instructions. Slides were analyzed under a fluorescence microscope (Nikon).
Isolated mouse glomeruli and cultured mouse primary podocytes were lysed by RIPA buffer (Sigma) containing protease inhibitor cocktail (Roche, Indianapolis, Ind.). TM untreated- and treated-kidneys, as well as sham-operated and I/R-injured kidneys, were extracted using the same lysis buffer with the protease inhibitors and homogenized by sonication. The protein concentrations of cell, glomerular and kidney lysates were determined by Bio-Rad protein assay (Hercules, Calif.) using BSA as a standard. Denatured proteins were separated on SDS polyacrylamide gel electrophoresis (SDS-PAGE) and then transferred to PVDF membranes. Blots were blocked with 5% non-fat milk for 1 hour and then incubated overnight with primary antibodies. The membranes were washed with Tris-buffered saline/TWEEN® (polysorbate) buffer and incubated with the appropriate HRP-conjugated secondary antibodies. […]

Compound	CRELD2 immunofluorescence in podocytes (mouse primary podocytes)	CRELD2 expression in cell lysates (WB) (mouse primary podocytes)	ER stress response genes including BiP, CHOP, MANF and EDEM (C57BL/6J mice [1]; day 1 after TM injection)	renal function and histology (C57BL/6J mice [1]; day 1 after TM injection)	renal histology after IP injection of TM (C57BL/6J mice [1]; peaks between 4 and 5 days after injection, glomeruli and other organs spared)	form of CRELD2 expressed (WB) (mouse primary podocytes; TM 2 μg/ml, 24 h)	CRELD2 in ER-stressed proximal tubular cells (marked by LTL) (C57BL/6J mice [2]; 1 day and 5 days post TM injection (FIG. 4))	BiP in ER stressed-tubular cells (immunofluorescence) (C57BL/6J mice [2])	BiP in ER stressed-tubular cells (immunofluorescence) (C57BL/6J mice [2]; listed as tunicamycin)	CRELD2 immunostaining in proximal tubules (co-IF with LTL) (C57BL/6J mice [2]; 5 days post-injection, TM 1 mg/kg IP)	CRELD2 induction in glomeruli (IF) (C57BL/6J mice [2]; TM-injected kidneys, 1 mg/kg IP)	BiP in kidney lysates (immunodetection) (C57BL/6J mice [2]; TM-injected mice (FIG. 18))	CRELD2 in kidney lysates (immunodetection) (C57BL/6J mice [2]; TM-injected mice, time not stated (FIG. 3))	CRELD2 transcript levels in whole-kidney lysates (RT-PCR) (C57BL/6J mice [2]; day 1 after TM 1 mg/kg IP vs DMSO vehicle or day 5)	CRELD2 immunostaining in proximal tubules (co-IF with LTL) (C57BL/6J mice [2]; day 1 following TM 1 mg/kg IP vs controls)	CRELD2 protein expression in kidneys (WB) (C57BL/6J mice [2]; day 1 vs controls or day 5 post-injection, TM 1 mg/kg IP)	urinary CRELD2 excretion (WB) (C57BL/6J mice [2])	urinary CRELD2 excretion (WB) (C57BL/6J mice [2]; listed as tunicamycin)	BiP in urine (immunodetection) (C57BL/6J mice [2])	BiP in urine (immunodetection) (C57BL/6J mice [2]; listed as tunicamycin)
C/C=C(/C)C(=O)O[C@H]1C(C)=C2[C@H]([C@@H]1OC(=O)CCCCCCC)[C@@](C)(OC(C)=O)C[C@H](OC(=O)CCC)[C@@]1(O)[C@H]2OC(=O)[C@@]1(C)O [TG, thapsigargin]	upregulated	induced expression of CRELD2																		
tunicamycin [TM]	upregulated	induced expression of CRELD2	upregulated	normal renal function and the absence of conspicuous histologic changes	extensive tubular dilation, epithelial flattening, tubular basement membrane denudation and loss of brush borders in proximal tubules	underglycosylated form of CRELD2	upregulated	upregulated	upregulation	subsided	did not exhibit CRELD2 induction	induced	induced	significantly increased	substantially upregulated	higher	can be detected; also recorded: dramatically increased	immunodetection of CRELD2 in the urine	detected	immunodetection of BiP in urine
